Test [1] has as its system advanced pancreatic adenocarcinoma. Nature of the test: Pilot study GEM + CIS + BVDU in patients. It is filed as in vivo, human. As to the method:
Pilot study: 13 Patients (mean age 61, 69% males, 4 stage III, 9 stage IV) with advanced pancreatic adenocarcinoma were treated with i.v. 1.000 mg/m^2 GEM over 30 min on days 1 and 15 of a 28-day schedule. CIS was administered at 50 mg/m^2. BVDU treatment took place on the same day and for four days after chemotherapy in the recovery phase (each four 125 mg tablets per day, resulting in a total dose of 6.000 mg per treatment cycle). As control, data were used of patients of a preceding study which were treated with GEM and CIS, but not with BVDU. With the intention to obtain a control group with a similar proportion of stage IV and stage III diseases as the 13 patients of the pilot study, […] (6 stage III, 15 stage IV) of 96 patients were selected from the Heinemann study by random generator.
Evaluation: Efficacy was measured by overall survival, objective tumor response rate (ORR, according to WHO criteria in the pilot study and RECIST criteria in the dose finding study) and time to progression (TTP) from the first administration onwards. Serum CA19-9 levels were measured at the start and end of each treatment cycle. Safety was evaluated according to NCI-CTC scale.
Evaluation of Progression: Patients were evaluated every five weeks.
Statistical Methods: Survival curves were generated using the Kaplan-Meier method; survival distributions were compared by the log-rank test (Cox-Mantel), and median survival by the Box and Whisker plot.

For test [2], the system named is AH13r sarcoma cells. Nature of the test: Number of AH13r cells under cytostatic ± BVDU and in the recovery phase. It is filed as cell-based, rat. An excerpt:
AH13r cells were subjected to increasing doses of the cytostatic mitomycin C (MMC). […] This inhibitory effect was maintained even after discontinuation of the cytostatic in the next cycle, in the so-called recovery phase. The cells without MMC and BVDU continued to grow without inhibition.

The subject of test [3] is AH13r tumor cells. Nature of the test: Hoechst 33258/propidium iodide (Hopi) double coloration for apoptosis. Format: cell-based, rat. The settings on record: co-treatment of cytostatic with BVDU. An excerpt: The indication that the reduction in cell number is based on apoptosis, was detected by means of Hoechst 33258/propidium iodide (Hopi) double coloration.
Test [4] deals with JUN-D. Nature of the test: Western Blot analysis of survival pathways: JUN-D. It is filed as cell-based. The procedure: (§1) Different “survival pathways” were tested by means of Western Blot analysis. The analyses were implemented according to standard methods, as is described in Sambrook et al., 2001, Molecular Cloning (3rd ed.). Antibody dilutions: P-STAT3 (cell signaling) 1: 500, JUN-D (Santa Cruz, Calif.) 1: 1,000.
(§2) The densitometrically determined content of oncogene proteins JUN-D and STAT3 was reduced by a quarter or two thirds after DOX treatment in the recovery phase (r=recovery phase). In the “recovery” only BVDU is given, no cytostatic.
(Immunoblotting shows a protein as a band on a membrane.)

In test [5] the test system is STAT3. Nature of the test: Western Blot analysis of survival pathways: STAT3. The following applies: after DOX treatment, recovery phase: only BVDU given, no cytostatic. Format: cell-based. The procedure:
as §1, §2

Test [6] deals with uridine phosphorylase (UPase). Nature of the test: UPase expression in human pancreas carcinoma cell lines. Format: cell-based. An excerpt: BVDU downregulates uridine phosphorylase (UPase) expression in BxPC-3 and AsPC-1 human pancreas carcinoma cell lines. […] In squamous cell carcinoma, high staining of UPase in primary tumors was frequently associated with the presence of lymph node metastases and lower overall survival.

Test [7] relates to Yoshida AH13r hepatoma cells. Nature of the test: Growth of s.c. Yoshida AH13r hepatoma tumors in SD-rats. It is filed as in vivo, rat. As to the method:
Ten SD-rats per treatment group were given a single s.c. injection of ascites Yoshida AH13r hepatoma cells. Five to 7 days after tumor application, the growth of the resulting tumors (at the injection site) was suppressed by i.p. treatment of the animals with cisplatin, doxorubicin or cyclophosphamide, or by additional oral treatment with 15 mg/kg BVDU (15 times within 3 weeks).

Where [8] appears, read: 13 patients, BVDU co-treatment with GEM + CIS.
Setting [9] is: BVDU co-treatment with GEM + CIS.

“Also recorded” adds a separate entry of the source.

On to `O=c1[nH]c(=O)n([C@H]2C[C@H](O)[C@@H](CO)O2)cc1/C=C/Br` [BVDU, (E)-5-(2-bromovinyl)-2′-deoxyuridine], for which the Median survival in test [1] (setting [8]) stood at 447 days. Besides, the “Median time to progression (TTP)” value in test [1] (setting [8]) is reported as 280 days. The “Remissions / response rate” value in test [1] (13 patients, WHO criteria, BVDU co-treatment with GEM + CIS) was determined as 33%. Besides, the “Patients who live more than two years” value in test [1] (setting [9]) is 23%. For the same compound, the “Patients who lived or have lived longer than one year” value in test [1] (setting [9]) amounted to 77%. The “Number of patients living longer than one year after first treatment” value in test [1] (BVDU-treatment group) is “Ten of 13”. Moreover, in test [1] (BVDU-treatment group), the “Number of patients living more than two years” value was “three”. In test [2] (BVDU given alone), the “Toxic effect on AH13r cells” value is reported as “no toxic effect”. The “Cell growth in the recovery phase” value in test [2] (after MMC+BVDU, cytostatic discontinued, cells continued to receive BVDU) is recorded as “greatly inhibited in their growth”. For the same compound, in test [3], the “Apoptosis (HOPI double coloration)” value was “promotes apoptosis”. Moreover, in test [4] (BVDU given in the “recovery” after MMC), the “Inhibition of MMC induced JUN-D overexpression” value is given as “complete inhibition”. For the same compound, in test [4] (after DOX treatment, recovery phase: only BVDU given, no cytostatic), the “Reduction of JUN-D protein content (densitometry)” value is listed as “approximately one quarter; also recorded: a quarter”. The “Reduction of STAT3 protein content (densitometry)” value in test [5] is “approximately two thirds”. For the same compound, the UPase expression entry in test [6] (AsPC-1 human pancreas carcinoma cell line) and in test [6] (BxPC-3 human pancreas carcinoma cell line) was “downregulates” in each case. Besides, the “Effect on tumor size” value is “only weak” in test [7] (BVDU 50 mg/kg given only on the same day as cisplatin, no recovery phase); “strong effect” in test [7] (BVDU 15 times alone in the recovery phase, one time together with cyclophosphamide); “strong effect” in test [7] (BVDU alone or in combination with DOX, recovery phase 6× one day); “very strong” in test [7] (BVDU with CIS, recovery phase 4×3 or 2 days). The “Influence on the growth of rat tumors” value in test [7] (BVDU given alone, oral) is reported as “no influence”.
